# Measurements taken from ChEMBL document CHEMBL4017496 (J Med Chem, 2017).
# Active and inactive are the calls of the source. The rule behind the calls is not given here.
# Key:
# [1] = Induction of adipogenesis in human bone marrow-derived mesenchymal stem cells assessed as adiponectin level at 20 uM measured on day 7 after 48 hrs by ELISA; type: functional, Mesenchymal stem cell
# [2] = biological target: Peroxisome proliferator-activated receptor delta (Homo sapiens) (UniProt Q03181); test: Antagonist activity at human GST-tagged PPARdelta LBD assessed as reduction in GW501516-induced fluorescein-C33 coactivator recruitment at 1 uM by TR-FRET assay relative to control
# [3] = biological target: T1, Cyclin-dependent kinase 5/CDK5 activator 1 (Homo sapiens) (UniProt Q00535+Q15078); test: Inhibition of human CDK5/p35 up to 20 uM using histone H1 as substrate after 40 mins in presence of [gamma32P]ATP by scintillation counting; type: protein-complex assay
# T1 sequence (Q00535 whole entry, the tested form may be a part): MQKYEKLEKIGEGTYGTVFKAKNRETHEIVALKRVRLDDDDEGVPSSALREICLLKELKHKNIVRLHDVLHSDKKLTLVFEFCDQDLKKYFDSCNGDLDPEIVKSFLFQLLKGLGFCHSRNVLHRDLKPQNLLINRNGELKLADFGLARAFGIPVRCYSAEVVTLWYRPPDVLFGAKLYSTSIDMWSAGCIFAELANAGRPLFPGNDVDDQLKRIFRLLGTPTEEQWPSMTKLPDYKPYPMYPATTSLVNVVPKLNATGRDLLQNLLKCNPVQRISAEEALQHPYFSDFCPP
# T1 sequence (Q15078 99-307 partner limits assumed): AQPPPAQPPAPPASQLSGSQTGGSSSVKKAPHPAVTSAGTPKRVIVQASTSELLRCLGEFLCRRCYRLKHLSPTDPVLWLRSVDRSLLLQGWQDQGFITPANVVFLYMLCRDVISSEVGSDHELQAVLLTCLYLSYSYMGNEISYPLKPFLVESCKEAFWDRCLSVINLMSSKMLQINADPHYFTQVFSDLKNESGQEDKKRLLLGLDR
# [4] = biological target: T2, Peroxisome proliferator-activated receptor delta (Homo sapiens) (UniProt Q03181); test: Displacement of Fluormone-Pan-PPAR Green from human GST-tagged PPARdelta LBD by TR-FRET assay
# T2 sequence (whole entry): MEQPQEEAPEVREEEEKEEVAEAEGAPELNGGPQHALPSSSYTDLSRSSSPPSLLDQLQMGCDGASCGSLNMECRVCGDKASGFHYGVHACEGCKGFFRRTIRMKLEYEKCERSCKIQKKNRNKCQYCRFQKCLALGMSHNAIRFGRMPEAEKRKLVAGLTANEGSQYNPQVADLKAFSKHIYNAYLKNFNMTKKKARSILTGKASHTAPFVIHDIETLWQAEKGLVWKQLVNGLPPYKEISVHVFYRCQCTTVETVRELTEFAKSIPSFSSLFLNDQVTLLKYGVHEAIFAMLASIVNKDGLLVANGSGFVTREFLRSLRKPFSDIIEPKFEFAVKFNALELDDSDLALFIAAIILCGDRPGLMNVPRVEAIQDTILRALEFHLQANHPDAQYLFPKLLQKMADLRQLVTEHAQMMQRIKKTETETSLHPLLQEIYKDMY
# Mus musculus = test: Antidiabetic activity in STZ-induced diabetic C57BL/6J mouse assessed as insulin sensitivity by measuring reduction of serum glucose levels at 20 mg/kg,po for 5 days measured at 1 and 4 hrs post last dose; type: functional, organism-based
# [5] = biological target: T3, Peroxisome proliferator-activated receptor alpha (Homo sapiens) (UniProt Q07869); test: Displacement of Fluormone-Pan-PPAR Green from human GST-tagged PPARalpha LBD at 4 uM by TR-FRET assay relative to control
# T3 sequence (whole entry): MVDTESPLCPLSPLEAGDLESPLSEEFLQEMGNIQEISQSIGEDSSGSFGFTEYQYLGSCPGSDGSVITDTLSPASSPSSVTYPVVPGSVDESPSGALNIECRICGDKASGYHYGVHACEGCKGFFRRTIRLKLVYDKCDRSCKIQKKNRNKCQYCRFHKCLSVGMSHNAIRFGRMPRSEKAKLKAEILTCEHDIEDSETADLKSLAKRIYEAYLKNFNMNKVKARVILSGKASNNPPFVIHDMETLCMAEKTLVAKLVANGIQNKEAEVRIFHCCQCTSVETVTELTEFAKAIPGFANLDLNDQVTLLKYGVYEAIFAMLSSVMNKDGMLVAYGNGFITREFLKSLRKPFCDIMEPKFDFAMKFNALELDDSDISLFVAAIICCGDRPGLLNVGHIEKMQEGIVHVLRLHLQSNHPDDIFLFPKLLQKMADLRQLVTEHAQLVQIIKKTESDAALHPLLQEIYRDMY
# [6] = biological target: T4, Peroxisome proliferator-activated receptor gamma (Homo sapiens) (UniProt P37231); test: Displacement of Fluormone-Pan-PPAR Green from human GST-tagged PPARgamma LBD at 20 uM by TR-FRET assay relative to control
# T4 sequence (whole entry): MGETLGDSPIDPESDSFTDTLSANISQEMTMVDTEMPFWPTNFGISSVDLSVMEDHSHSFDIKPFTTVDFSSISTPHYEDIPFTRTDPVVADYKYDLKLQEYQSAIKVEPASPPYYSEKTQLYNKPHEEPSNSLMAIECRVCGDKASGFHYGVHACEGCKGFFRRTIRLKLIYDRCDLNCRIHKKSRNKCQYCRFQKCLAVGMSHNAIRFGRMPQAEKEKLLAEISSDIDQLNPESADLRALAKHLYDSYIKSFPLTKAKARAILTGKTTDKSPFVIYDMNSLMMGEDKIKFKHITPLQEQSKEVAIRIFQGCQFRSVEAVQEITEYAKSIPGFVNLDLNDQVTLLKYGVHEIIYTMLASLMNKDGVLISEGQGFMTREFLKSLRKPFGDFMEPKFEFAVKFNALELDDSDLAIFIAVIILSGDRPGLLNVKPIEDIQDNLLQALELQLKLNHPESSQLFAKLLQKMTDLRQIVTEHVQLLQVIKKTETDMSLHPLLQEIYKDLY
# [7] = biological target: T1, Cyclin-dependent kinase 5/CDK5 activator 1 (Homo sapiens); test: Inhibition of human CDK5/p25 up to 20 uM using histone H1 as substrate after 40 mins in presence of [gamma32P]ATP by scintillation counting; type: protein-complex assay
# [8] = biological target: T5, Glucocorticoid receptor (Homo sapiens) (UniProt P04150); test: Displacement of Fluormone-GS1 from human GST-tagged glucocorticoid receptor LBD at 4 uM by TR-FRET assay
# T5 sequence (whole entry): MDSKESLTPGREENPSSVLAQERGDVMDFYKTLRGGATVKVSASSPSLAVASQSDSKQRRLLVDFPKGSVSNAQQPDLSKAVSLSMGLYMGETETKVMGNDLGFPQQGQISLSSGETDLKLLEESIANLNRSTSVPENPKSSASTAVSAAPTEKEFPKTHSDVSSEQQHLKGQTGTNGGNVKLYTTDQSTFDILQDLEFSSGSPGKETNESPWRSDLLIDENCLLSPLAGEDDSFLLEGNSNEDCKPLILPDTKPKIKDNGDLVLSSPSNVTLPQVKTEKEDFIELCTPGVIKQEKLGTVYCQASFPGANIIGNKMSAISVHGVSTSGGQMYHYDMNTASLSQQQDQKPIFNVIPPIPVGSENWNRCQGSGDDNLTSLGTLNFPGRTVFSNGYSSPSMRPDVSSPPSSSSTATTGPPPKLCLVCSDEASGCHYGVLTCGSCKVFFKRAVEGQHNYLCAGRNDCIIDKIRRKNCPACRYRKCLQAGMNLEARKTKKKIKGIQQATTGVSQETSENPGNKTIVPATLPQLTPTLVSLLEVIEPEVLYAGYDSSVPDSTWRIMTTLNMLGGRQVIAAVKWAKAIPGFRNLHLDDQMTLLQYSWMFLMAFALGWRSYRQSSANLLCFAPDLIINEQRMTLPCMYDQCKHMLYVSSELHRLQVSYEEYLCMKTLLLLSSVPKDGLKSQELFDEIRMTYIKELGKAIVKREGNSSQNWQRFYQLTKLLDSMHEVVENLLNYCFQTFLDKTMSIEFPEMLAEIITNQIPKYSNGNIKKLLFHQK
# [9] = biological target: T4, Peroxisome proliferator-activated receptor gamma (Homo sapiens); test: Transactivation of human PPARgamma expressed in African green monkey CV1 cells at 10 uM by luciferase reporter gene assay relative to control; type: cell-based
# [10] = Induction of adipogenesis in human bone marrow-derived mesenchymal stem cells assessed as adiponectin level at 4 uM measured on day 7 after 48 hrs by ELISA; type: functional, Mesenchymal stem cell
smiles,measurement,setting,value
CNC(=O)[C@H]1O[C@@H](n2cnc3c(NCc4cccc(I)c4)ncnc32)[C@H](O)[C@@H]1O [IB-MECA],Activity,[1],216 pg/mL
same,inhibition,[2],14%
same,inhibition,[3],inactive
same,inhibition,[4],Dose-dependent effect
same,Activity,Mus musculus,Active
same,inhibition,[5],inactive
same,inhibition,[6],22.2%
same,inhibition,[7],inactive
same,inhibition,[8],inactive
same,Activity,[9],29.9%
same,Activity,[10],117 pg/mL
